# Experimental data from US12281080B2, “Quinoline-based compounds and methods of inhibiting CDK8/19” (University of South Carolina, priority 2018, dated 2025).
# Key:
# Assay in all cases: KINOMEscan scanMAX
# Assay type in all cases: binding
# Conditions in all cases: 2000 nM; read-out: Percent Control
# TRKC (NTRK3) = TRKC (NTRK3) (Homo sapiens (Human), UniProt Q16288)
# CSNK1G2 = CSNK1G2 (Homo sapiens (Human), UniProt P78368)
# PIK3CA(I800L) = PIK3CA(I800L) (Homo sapiens (Human), UniProt P42336, I800L)
# PIK3CA(I800L), sequence (P42336 whole entry I800L): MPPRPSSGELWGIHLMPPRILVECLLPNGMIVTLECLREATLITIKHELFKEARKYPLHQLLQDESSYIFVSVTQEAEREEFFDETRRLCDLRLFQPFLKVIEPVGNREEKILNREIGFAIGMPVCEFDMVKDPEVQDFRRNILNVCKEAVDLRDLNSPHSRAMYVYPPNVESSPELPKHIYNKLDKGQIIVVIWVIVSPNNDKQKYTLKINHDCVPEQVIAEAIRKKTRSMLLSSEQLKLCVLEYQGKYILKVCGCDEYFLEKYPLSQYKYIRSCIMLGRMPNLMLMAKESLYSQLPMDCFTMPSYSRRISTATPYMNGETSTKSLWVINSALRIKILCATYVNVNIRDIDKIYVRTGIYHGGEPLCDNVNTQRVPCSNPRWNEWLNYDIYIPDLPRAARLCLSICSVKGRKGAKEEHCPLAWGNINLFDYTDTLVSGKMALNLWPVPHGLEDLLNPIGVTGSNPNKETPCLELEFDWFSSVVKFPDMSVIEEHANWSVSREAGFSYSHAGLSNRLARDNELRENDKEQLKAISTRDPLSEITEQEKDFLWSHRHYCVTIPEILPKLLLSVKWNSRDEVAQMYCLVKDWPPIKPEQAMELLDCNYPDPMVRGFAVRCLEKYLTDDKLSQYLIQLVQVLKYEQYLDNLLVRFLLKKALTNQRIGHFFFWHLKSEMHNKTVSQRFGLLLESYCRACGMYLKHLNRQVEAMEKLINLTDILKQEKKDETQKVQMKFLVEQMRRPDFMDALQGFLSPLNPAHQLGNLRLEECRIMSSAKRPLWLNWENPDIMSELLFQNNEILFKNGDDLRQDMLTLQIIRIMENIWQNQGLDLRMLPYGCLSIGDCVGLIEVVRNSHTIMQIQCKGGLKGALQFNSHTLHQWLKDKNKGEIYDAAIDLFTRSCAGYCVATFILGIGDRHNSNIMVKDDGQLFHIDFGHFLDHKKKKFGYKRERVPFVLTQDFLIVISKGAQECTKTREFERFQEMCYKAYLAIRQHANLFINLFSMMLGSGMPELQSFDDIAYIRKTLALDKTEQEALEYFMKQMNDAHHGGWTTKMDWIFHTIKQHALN
# [1] = biological target: PFPK5(P.falciparum) (MAL13P1.279) (Plasmodium falciparum (isolate 3D7), UniProt P61075)
# ERK8 (MAPK15) = ERK8 (MAPK15) (Homo sapiens (Human), UniProt Q8TD08)
# ERK8 (MAPK15), sequence (Q8TD08 whole entry): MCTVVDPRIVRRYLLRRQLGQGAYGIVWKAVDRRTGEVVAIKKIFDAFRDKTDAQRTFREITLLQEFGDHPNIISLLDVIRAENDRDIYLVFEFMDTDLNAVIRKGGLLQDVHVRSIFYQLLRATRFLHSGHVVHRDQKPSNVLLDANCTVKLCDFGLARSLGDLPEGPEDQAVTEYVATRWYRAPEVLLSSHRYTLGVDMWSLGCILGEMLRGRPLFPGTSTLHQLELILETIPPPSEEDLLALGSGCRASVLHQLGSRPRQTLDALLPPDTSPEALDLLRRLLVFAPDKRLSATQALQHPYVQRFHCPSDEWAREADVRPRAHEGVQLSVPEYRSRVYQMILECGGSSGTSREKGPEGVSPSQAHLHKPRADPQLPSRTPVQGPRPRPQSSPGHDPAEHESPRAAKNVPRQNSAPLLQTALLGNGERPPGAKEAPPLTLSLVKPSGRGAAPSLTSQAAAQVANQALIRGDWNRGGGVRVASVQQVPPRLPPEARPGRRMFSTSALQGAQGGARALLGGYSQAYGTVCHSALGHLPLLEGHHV
# FAK (PTK2) = FAK (PTK2) (Homo sapiens (Human), UniProt Q05397)
# FAK (PTK2), sequence (Q05397 whole entry): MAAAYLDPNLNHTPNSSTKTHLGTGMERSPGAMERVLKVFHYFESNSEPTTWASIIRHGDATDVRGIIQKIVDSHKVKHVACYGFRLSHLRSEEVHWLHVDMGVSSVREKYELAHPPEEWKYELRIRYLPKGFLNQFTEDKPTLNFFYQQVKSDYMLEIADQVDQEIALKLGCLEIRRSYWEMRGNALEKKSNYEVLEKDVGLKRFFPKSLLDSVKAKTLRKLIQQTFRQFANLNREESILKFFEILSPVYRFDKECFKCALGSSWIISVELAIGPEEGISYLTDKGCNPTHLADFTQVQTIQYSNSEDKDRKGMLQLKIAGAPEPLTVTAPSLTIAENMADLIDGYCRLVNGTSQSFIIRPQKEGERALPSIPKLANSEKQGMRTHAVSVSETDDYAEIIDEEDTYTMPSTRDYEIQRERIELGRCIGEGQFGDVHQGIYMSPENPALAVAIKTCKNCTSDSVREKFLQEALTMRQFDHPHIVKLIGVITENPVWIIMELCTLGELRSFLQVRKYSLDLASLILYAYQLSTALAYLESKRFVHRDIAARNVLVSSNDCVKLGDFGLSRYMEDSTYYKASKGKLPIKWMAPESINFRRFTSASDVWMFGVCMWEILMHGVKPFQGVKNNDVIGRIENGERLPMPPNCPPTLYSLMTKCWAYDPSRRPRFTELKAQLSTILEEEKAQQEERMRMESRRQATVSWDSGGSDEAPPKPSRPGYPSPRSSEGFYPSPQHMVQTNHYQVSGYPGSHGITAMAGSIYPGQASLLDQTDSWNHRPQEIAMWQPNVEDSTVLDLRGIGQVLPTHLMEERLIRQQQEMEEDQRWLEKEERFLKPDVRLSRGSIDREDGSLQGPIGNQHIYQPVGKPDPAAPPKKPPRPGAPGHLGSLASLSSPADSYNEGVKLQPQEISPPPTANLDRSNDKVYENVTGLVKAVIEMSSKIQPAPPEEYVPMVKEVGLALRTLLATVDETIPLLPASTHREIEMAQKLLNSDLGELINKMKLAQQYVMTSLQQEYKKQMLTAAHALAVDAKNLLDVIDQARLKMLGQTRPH
# LCK = LCK (Homo sapiens (Human), UniProt P06239)
# LCK, sequence (P06239 whole entry): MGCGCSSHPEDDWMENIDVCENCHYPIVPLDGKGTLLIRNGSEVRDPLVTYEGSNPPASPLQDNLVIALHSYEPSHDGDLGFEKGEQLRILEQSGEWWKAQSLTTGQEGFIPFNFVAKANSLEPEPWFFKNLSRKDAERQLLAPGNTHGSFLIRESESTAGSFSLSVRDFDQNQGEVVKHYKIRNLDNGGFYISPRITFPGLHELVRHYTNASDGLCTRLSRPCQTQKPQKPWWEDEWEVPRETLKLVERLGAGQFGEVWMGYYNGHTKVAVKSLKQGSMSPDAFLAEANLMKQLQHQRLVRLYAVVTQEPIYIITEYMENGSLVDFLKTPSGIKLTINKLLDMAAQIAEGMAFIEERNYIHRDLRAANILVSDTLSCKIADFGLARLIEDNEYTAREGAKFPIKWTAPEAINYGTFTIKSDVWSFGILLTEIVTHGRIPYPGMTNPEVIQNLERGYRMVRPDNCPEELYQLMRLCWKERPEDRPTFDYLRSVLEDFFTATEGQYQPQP
# TRKC (NTRK3), sequence (Q16288 32-839): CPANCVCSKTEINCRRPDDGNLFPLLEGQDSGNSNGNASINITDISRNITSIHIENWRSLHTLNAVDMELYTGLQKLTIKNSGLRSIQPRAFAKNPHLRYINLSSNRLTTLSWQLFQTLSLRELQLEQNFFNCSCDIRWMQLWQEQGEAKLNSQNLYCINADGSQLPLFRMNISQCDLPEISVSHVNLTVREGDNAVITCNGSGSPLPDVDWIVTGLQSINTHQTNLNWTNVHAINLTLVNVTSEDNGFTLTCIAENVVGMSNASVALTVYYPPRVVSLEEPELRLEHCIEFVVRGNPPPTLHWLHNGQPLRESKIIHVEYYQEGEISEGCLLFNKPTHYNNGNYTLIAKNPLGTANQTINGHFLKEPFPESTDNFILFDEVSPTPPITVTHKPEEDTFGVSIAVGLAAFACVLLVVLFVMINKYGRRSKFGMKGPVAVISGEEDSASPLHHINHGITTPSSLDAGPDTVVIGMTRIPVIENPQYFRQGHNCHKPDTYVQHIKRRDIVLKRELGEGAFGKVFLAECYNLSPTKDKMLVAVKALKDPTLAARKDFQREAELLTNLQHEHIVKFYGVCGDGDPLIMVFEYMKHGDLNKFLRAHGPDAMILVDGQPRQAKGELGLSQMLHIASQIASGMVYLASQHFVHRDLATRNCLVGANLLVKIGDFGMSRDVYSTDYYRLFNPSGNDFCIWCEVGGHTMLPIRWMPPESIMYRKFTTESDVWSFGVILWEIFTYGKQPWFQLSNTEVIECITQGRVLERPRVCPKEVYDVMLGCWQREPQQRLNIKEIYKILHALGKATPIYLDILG
# CSNK1G2, sequence (P78368 whole entry): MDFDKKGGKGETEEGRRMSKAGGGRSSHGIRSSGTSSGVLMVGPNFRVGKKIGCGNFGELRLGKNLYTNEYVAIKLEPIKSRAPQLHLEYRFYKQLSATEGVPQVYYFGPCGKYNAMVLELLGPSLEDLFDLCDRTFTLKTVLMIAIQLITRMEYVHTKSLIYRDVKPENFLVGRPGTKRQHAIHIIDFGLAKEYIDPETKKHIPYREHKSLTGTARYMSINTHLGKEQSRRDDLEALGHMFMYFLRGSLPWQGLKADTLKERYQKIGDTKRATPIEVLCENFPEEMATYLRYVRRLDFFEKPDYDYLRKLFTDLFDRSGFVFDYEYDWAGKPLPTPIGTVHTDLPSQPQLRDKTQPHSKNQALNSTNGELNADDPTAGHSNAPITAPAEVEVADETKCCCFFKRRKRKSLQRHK
compound,measurement,setting,value
"CN1CCN(C(=O)c2ccc3cc(CCNc4ccnc5ccc(C#N)cc45)ccc3c2)CC1 [compound 6148, 4-((2-(6-(4-methylpiperazine-1-carbonyl)naphthalen-2-yl)ethyl)amino)quinoline-6-carbonitrile]",remaining binding at 2 µM,TRKC (NTRK3),69%
same,remaining binding at 2 µM,CSNK1G2,89%
same,remaining binding at 2 µM,PIK3CA(I800L),72%
same,remaining binding at 2 µM,[1],70%
same,remaining binding at 2 µM,ERK8 (MAPK15),76%
same,remaining binding at 2 µM,FAK (PTK2),89%
same,remaining binding at 2 µM,LCK,92%
